Test results as given in ChEMBL document CHEMBL3991601, “The target landscape of clinical kinase drugs” (Science, 2017).
Calls of active or inactive are those of the source. On the calls: in the data inactive means no Kd found up to 30 µM.

Key:
[1] = molecular target: Serine/threonine-protein kinase MRCK gamma (Homo sapiens, UniProt Q6DT37)
[2] = molecular target: ALK tyrosine kinase receptor (Homo sapiens, UniProt Q9UM73); type: subcellular, K-562, COLO 205, SK-N-BE(2) and MV-4-11, Cell lysate; conditions: read-out: Kd apparent
[3] = molecular target: T1, Isoleucine--tRNA ligase, mitochondrial (Homo sapiens, UniProt Q9NSE4)
T1 sequence (Q9NSE4 whole entry): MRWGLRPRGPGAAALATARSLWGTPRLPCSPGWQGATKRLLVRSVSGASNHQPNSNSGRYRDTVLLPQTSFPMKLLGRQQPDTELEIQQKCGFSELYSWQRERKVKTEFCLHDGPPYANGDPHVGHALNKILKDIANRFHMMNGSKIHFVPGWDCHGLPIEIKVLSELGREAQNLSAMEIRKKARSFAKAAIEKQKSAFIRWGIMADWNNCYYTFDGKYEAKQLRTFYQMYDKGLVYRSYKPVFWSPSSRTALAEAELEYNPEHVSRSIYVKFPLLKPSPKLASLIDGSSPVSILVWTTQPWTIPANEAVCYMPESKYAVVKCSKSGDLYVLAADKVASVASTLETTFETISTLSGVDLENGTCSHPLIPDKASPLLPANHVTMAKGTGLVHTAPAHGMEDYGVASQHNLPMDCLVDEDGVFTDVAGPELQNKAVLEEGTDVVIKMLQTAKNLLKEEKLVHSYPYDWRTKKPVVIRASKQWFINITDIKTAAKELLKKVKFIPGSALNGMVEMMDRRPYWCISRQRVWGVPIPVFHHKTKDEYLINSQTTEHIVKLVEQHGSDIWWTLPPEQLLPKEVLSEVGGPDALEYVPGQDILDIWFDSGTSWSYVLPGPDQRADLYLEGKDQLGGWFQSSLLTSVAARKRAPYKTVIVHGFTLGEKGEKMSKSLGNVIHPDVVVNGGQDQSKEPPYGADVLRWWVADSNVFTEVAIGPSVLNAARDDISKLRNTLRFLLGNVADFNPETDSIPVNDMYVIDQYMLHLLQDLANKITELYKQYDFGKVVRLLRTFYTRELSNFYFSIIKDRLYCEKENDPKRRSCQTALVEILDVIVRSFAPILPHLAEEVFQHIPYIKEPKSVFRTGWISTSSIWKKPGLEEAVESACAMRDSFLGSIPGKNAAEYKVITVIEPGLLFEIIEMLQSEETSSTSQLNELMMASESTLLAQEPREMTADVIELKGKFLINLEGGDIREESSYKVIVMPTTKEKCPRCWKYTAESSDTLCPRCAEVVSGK

[4] = molecular target: Tyrosine-protein kinase JAK2 (Homo sapiens, UniProt O60674)
[5] = molecular target: Dual specificity tyrosine-phosphorylation-regulated kinase 1B (Homo sapiens, UniProt Q9Y463)
[6] = molecular target: MAP kinase-activated protein kinase 3 (Homo sapiens, UniProt Q16644)
[7] = molecular target: Serine/threonine-protein kinase 38 (Homo sapiens, UniProt Q15208)
[8] = molecular target: Tyrosine-protein kinase Fgr (Homo sapiens, UniProt P09769)
[9] = molecular target: T2, Tyrosine-protein kinase Mer (Homo sapiens, UniProt Q12866)
T2 sequence (Q12866 whole entry): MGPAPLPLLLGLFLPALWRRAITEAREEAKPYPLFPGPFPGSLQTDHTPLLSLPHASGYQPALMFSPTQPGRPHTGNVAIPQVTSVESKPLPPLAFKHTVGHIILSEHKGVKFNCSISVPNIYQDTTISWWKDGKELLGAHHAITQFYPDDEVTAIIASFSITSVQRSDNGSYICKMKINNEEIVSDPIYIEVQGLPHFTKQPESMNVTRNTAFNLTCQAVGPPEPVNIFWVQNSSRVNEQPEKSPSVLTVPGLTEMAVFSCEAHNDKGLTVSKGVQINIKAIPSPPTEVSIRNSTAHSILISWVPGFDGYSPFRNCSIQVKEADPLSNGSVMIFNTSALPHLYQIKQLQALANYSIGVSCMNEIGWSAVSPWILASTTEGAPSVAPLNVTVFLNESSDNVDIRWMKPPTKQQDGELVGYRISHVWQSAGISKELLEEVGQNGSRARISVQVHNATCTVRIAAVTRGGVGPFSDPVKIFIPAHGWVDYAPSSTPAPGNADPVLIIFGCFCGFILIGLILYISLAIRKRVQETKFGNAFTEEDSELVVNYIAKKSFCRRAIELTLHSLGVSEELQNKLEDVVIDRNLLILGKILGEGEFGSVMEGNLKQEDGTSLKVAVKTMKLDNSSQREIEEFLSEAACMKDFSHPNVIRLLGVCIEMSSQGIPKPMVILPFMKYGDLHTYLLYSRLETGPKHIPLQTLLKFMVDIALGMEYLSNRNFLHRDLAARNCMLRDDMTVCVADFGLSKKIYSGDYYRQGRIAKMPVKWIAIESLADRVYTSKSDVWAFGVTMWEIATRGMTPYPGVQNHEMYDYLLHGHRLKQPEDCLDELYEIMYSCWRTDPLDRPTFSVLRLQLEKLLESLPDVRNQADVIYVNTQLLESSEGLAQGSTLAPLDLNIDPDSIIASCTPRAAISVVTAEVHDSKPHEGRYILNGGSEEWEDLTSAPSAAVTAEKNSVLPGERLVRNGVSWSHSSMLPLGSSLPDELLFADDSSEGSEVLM

[10] = molecular target: Eukaryotic peptide chain release factor GTP-binding subunit ERF3B (Homo sapiens, UniProt Q8IYD1)
[11] = molecular target: Cyclin-dependent kinase 10 (Homo sapiens, UniProt Q15131)
[12] = molecular target: T3, Dual specificity mitogen-activated protein kinase kinase 4 (Homo sapiens, UniProt P45985)
T3 sequence (P45985 whole entry): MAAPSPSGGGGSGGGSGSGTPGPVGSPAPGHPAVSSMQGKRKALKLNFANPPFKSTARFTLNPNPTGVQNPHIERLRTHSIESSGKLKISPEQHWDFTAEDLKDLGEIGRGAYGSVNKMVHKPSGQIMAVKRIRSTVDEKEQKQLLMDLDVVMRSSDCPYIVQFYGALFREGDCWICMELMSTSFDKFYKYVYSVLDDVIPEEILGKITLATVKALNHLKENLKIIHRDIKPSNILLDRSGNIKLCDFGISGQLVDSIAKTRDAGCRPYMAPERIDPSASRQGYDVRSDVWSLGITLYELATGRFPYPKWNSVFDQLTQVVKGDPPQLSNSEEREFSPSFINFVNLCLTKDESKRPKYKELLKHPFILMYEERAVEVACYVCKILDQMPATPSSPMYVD

Chain of MAP kinase-activated protein kinase 3 (Q16644 whole entry): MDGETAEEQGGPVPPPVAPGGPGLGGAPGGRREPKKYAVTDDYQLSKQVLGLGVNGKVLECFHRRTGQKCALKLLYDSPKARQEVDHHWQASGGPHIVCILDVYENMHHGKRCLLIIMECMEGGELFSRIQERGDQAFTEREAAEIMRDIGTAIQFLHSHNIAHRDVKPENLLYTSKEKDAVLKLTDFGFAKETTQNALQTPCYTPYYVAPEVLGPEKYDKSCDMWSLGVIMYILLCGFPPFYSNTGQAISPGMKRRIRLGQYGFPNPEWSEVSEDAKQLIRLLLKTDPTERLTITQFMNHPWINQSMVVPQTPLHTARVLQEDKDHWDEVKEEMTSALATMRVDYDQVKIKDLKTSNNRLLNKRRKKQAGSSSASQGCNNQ
Chain of Dual specificity tyrosine-phosphorylation-regulated kinase 1B (Q9Y463 whole entry): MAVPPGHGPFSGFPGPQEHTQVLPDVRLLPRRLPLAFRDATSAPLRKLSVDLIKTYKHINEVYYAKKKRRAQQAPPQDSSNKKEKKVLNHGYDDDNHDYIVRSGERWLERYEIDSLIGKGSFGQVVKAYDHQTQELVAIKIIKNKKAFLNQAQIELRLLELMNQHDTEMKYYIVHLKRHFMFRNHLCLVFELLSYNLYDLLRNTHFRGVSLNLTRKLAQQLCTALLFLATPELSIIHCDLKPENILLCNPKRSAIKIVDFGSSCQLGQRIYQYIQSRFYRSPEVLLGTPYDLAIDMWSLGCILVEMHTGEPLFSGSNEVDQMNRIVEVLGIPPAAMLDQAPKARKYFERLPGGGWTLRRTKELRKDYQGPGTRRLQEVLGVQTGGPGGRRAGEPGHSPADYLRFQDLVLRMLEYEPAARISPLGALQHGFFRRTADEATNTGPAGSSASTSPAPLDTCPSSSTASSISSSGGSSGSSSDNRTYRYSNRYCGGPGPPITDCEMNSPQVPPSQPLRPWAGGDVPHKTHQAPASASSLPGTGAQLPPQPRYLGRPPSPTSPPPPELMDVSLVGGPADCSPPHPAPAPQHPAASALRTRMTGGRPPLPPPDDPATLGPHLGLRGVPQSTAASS
Chain of ALK tyrosine kinase receptor (Q9UM73 whole entry): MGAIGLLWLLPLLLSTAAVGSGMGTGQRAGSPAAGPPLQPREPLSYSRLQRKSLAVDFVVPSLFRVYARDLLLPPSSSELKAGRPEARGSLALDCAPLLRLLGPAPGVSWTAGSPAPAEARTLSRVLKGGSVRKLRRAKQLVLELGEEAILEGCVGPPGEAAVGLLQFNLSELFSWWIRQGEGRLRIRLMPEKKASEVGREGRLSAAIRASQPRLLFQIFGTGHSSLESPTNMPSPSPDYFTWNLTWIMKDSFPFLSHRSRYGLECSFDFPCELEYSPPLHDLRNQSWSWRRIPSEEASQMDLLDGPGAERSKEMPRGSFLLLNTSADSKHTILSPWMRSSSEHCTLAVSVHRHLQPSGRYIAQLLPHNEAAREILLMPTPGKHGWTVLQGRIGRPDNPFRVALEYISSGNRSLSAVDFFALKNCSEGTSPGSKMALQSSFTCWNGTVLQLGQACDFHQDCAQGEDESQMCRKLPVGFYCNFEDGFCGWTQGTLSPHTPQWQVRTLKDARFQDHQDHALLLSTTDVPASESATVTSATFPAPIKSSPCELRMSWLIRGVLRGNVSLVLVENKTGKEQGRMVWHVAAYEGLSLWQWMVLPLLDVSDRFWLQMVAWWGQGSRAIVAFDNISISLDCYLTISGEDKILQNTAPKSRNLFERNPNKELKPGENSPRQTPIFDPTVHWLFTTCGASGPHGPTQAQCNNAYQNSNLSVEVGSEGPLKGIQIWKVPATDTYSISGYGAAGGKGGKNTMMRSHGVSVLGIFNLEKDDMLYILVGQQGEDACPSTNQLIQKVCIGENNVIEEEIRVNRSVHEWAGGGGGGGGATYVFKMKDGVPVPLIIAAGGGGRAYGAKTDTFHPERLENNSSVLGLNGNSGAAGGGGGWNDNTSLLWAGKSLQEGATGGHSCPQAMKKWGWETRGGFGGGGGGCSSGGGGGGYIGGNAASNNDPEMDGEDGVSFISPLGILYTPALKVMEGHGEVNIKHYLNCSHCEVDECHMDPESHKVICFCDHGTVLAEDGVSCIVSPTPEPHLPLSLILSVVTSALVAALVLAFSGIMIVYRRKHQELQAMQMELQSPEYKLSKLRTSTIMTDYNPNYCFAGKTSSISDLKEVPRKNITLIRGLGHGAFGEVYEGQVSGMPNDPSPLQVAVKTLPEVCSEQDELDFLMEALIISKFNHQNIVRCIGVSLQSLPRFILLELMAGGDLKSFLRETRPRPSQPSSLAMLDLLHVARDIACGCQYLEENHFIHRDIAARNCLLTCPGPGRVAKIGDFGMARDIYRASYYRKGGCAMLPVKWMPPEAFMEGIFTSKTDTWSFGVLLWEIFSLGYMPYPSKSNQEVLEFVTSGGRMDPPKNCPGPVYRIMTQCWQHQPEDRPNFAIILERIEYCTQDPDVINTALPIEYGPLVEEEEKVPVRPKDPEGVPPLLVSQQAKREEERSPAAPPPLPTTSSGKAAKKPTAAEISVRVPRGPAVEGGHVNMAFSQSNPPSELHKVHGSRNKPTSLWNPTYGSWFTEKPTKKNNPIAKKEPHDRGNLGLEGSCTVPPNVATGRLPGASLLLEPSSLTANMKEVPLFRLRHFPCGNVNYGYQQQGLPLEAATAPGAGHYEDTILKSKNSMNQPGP
Chain of Serine/threonine-protein kinase MRCK gamma (Q6DT37 whole entry): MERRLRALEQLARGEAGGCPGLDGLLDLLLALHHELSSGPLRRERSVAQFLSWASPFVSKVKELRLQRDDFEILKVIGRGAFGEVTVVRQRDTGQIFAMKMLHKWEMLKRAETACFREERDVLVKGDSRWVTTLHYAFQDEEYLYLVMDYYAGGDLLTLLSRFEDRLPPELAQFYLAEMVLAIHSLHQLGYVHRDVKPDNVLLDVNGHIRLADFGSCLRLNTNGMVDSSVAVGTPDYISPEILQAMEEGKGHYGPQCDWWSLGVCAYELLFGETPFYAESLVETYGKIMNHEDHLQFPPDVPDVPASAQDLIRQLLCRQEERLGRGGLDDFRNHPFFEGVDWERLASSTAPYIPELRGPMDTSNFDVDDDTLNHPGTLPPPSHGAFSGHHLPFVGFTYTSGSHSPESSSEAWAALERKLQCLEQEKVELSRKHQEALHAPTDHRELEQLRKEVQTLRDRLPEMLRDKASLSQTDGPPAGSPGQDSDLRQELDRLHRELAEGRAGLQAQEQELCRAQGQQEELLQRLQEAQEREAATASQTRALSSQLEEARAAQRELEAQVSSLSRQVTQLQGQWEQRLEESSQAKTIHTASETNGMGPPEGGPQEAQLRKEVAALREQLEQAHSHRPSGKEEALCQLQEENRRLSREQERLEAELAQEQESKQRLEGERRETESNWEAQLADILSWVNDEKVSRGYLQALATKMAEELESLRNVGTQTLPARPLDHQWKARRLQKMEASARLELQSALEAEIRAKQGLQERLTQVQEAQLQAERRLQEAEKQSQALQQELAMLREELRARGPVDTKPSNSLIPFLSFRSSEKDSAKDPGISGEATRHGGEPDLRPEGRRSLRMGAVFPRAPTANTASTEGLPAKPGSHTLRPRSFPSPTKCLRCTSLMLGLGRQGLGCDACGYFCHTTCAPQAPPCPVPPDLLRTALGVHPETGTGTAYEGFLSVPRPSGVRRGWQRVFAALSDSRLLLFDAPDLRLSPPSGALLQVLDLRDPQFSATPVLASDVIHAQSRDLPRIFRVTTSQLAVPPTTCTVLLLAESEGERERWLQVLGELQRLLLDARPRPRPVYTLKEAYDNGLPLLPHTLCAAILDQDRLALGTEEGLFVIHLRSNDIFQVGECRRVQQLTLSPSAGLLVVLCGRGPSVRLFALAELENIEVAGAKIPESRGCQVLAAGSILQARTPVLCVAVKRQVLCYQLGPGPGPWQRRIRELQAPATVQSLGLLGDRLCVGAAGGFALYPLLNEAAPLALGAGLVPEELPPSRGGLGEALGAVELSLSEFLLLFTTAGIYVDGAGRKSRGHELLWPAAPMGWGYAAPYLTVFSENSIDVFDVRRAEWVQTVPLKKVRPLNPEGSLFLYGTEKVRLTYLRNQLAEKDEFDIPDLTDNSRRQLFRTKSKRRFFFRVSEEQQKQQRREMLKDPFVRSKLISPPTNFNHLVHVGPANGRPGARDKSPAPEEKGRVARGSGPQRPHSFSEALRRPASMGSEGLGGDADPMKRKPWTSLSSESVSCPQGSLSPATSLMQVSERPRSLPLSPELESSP
Chain of Serine/threonine-protein kinase 38 (Q15208 whole entry): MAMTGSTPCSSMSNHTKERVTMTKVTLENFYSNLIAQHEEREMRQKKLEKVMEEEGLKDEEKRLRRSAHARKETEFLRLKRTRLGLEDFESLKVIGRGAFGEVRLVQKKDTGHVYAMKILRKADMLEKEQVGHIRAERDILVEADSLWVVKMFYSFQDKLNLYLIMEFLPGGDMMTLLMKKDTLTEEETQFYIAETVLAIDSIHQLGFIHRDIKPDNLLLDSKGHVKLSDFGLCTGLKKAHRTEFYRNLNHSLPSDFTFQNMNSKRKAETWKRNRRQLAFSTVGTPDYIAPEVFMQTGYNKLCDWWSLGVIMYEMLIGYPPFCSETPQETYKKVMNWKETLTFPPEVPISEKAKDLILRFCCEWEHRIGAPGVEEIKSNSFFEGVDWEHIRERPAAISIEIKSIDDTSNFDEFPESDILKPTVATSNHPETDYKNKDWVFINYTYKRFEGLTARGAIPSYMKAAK
Chain of Cyclin-dependent kinase 10 (Q15131 whole entry): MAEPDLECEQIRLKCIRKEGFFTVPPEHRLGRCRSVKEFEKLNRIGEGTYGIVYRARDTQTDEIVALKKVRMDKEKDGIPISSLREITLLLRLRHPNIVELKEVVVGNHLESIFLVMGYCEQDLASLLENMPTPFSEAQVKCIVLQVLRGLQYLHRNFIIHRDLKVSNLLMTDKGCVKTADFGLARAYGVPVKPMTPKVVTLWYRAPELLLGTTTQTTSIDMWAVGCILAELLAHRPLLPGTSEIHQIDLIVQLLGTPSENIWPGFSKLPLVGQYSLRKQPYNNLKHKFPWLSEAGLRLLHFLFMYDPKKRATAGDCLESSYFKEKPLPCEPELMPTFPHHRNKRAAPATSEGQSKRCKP

Compound: O=C1NC(=O)/C(=C/c2ccc3nccc(-c4ccncc4)c3c2)S1 [GSK-1059615]
- Kd [1]: > 30 µM (inactive)
- Kd [2]: > 30 µM (inactive)
- Kd [3]: > 30 µM (inactive)
- Kd [4]: > 30 µM (inactive)
- Kd [5]: > 30 µM (inactive)

Compound: O=C(Nc1ccc(-c2ccnc(Nc3ccc(N4CCOCC4)cc3)n2)cc1)C1CCCN1 (configuration not stated) [XL-019]
- Kd [1]: > 30 µM (inactive)
- Kd [2]: > 30 µM (inactive)
- Kd [6]: > 30 µM (inactive)
- Kd [7]: > 30 µM (inactive)
- Kd [8]: > 30 µM (inactive)
- Kd [9]: > 30 µM (inactive)

Compound: Cc1ccc(NC(=O)c2ccc(CN3CC[C@H](N(C)C)C3)c(C(F)(F)F)c2)cc1Nc1nccc(-c2cncnc2)n1 [BAFETINIB]
- Kd [1]: > 30 µM (inactive)
- Kd [10]: > 30 µM (inactive)
- Kd [2]: > 30 µM (inactive)
- Kd [6]: 0.023 µM (active)
- Kd [4]: > 30 µM (inactive)
- Kd [11]: > 30 µM (inactive)
- Kd [12]: > 30 µM (inactive)
- Kd [5]: > 30 µM (inactive)

Compound: COC(=O)[C@@]1(O)C[C@H]2O[C@]1(C)n1c3ccccc3c3c4c(c5c6ccccc6n2c5c31)C(=O)NC4 [K-252A]
- Kd [1]: > 30 µM (inactive)
- Kd [2]: > 30 µM (inactive)
- Kd [6]: > 30 µM (inactive)
- Kd [11]: > 30 µM (inactive)
- Kd [7]: > 30 µM (inactive)
- Kd [9]: 0.041 µM
- Kd [12]: > 30 µM (inactive)
- Kd [5]: > 30 µM (inactive)

Compound: Cc1cc(-c2cc(O)ccc2Cl)cc2nnc(Nc3ccc(OCCN4CCCC4)cc3)nc12
- Kd [1]: > 30 µM (inactive)
- Kd [2]: > 30 µM (inactive)
- Kd [6]: > 30 µM (inactive)
- Kd [8]: > 30 µM (inactive)
- Kd [5]: > 30 µM (inactive)
